Measurements from patent EP0222996A2, “3-Amino-dihydro(1)benzopyrane and benzothiopyrane” (CIBA-GEIGY AG, priority 1985, dated 1987).
Where a name gives a salt, the structure may show the parent alone. Read-outs that look alike come from different tables or passages of the source.

Target: T1, Serotonin-(S-1A) (Rattus norvegicus, UniProt P19327)
T1 construct: Suspensionen aus Membranmaterial von Rattenhirn; from tissue; host or cells: rat brain membranes
T1 sequence (P19327 1-422): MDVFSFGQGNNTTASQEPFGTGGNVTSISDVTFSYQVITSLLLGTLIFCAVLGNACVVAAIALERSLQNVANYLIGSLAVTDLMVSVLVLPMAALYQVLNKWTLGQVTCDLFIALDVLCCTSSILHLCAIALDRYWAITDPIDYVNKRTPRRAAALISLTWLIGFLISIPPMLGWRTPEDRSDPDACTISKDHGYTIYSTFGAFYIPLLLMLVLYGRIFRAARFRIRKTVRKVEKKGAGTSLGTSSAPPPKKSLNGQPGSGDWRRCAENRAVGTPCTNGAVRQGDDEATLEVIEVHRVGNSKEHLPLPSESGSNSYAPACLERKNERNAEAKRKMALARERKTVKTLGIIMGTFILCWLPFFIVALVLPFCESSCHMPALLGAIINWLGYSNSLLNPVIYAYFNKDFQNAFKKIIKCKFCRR
Assay: 3H-serotonin binding assay on rat brain membrane suspensions
Design: species or system Ratten
Text: Die Serotonin-(S-1A)-Aufnahme, welche für Regulatoren mit Rezeptor-eigenschaften bei Serotonin-Agonisten indiziert ist, kann in-vitro wie folgt in einem Bindungsassay nachgewiesen werden: • Man stellt Suspensionen aus Membranmaterial von Rattenhirn her und inkubiert diese mit ^3H-Serotonin gemäss der Vorschrift von Martin und Sanders-Bush, Naunyn-Schmiederberg Arch. Pharmacol. 321, 165 (1982) und Middlemiss und Fozard Eur. J. Pharmacol., 90, 151 (1983).
In diesem Bindungsassay werden aliquote Teile von […] Zellsuspensionen zu abgepufferten ^3H-Serotonin-Lösungen mit und ohne Wirkstoff gegeben. Die Konzentration an ^3H-Serotonin ist 2 nM und man wertet die zu testenden Wirkstoffe über einen weiten Konzentrationsbereich aus. Die IC50-Werte (Konzentrationen an Wirkstoff, welche zur Hemmung von 50 % 2 nM ^3H-Serotonin nötig sind) werden graphisch bestimmt.

IC50 (concentration needed to inhibit 50 % of 2 nM 3H-Serotonin, rat brain membranes, determined graphically, read-out: IC50-Werte) [nM] | Compound | IC50 [nM]
 | CCCN(CCC)C1COc2cccc(OCC)c2C1 (centres unmarked) [5-Aethoxy-N,N-dipropyl-3,4-dihydro-2H-[1]-benzopyran-3-amin-hydrochlorid] | ~40
~21 | CCCN(CCC)C1CSc2cccc(OCC)c2C1 (centres unmarked) [3,4-Dihydro-N,N-dipropyl-5-ethoxy-2H-[1]-benzothiopyran-3-amin-hydrochlorid] | 
